ChEMBL document CHEMBL1201862, “PubChem BioAssay data set” (2004)
Calls of active or inactive are those of the source.

Legend:
[1] = target: DNA dC->dU-editing enzyme APOBEC-3G (Homo sapiens, UniProt Q9HC16); format: functional;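 note: Dose-response counterscreen measuring inhibition of APOBEC3G DNA deaminase activity, run while confirming APOBEC3A inhibitors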
[2] = target: DNA dC->dU-editing enzyme APOBEC-3A (Homo sapiens, UniProt P31941); experiment: Dose Response confirmation of small molecule APOBEC3A DNA Deaminase Inhibitors via a fluorescence-based single-stranded DNA deaminase assay. [Related pubchem assays (depositor defined):AID493011, AID493024]; format: functional
Sequence of DNA dC->dU-editing enzyme APOBEC-3A (P31941 whole entry): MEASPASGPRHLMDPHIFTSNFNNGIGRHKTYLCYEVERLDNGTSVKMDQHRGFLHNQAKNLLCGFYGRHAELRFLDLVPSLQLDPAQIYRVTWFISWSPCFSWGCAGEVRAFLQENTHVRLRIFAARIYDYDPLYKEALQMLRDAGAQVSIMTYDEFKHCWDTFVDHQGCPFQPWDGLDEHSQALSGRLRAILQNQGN

HeLa = experiment: HeLa cell cytotoxicity, dose response, cytotoxicity control for MITF activator project, CellTiter-Glo luminescence, cherry-pick samples (AID 540259); format: functional, cell-based; details: Homo sapiens
Fatty acid synthase [3] = target: T1, Fatty acid synthase (Homo sapiens, UniProt P49327); experiment: FAS thioesterase domain inhibitors, dose response, biochemical, endpoint fluorescence intensity, uHTS hits (AID 624327); format: functional;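 note: fluorescence from hydrolysis of an O-methyl fluorescein acyl ester substrate by the enzyme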
T1 sequence (P49327 whole entry, the tested form may be a part): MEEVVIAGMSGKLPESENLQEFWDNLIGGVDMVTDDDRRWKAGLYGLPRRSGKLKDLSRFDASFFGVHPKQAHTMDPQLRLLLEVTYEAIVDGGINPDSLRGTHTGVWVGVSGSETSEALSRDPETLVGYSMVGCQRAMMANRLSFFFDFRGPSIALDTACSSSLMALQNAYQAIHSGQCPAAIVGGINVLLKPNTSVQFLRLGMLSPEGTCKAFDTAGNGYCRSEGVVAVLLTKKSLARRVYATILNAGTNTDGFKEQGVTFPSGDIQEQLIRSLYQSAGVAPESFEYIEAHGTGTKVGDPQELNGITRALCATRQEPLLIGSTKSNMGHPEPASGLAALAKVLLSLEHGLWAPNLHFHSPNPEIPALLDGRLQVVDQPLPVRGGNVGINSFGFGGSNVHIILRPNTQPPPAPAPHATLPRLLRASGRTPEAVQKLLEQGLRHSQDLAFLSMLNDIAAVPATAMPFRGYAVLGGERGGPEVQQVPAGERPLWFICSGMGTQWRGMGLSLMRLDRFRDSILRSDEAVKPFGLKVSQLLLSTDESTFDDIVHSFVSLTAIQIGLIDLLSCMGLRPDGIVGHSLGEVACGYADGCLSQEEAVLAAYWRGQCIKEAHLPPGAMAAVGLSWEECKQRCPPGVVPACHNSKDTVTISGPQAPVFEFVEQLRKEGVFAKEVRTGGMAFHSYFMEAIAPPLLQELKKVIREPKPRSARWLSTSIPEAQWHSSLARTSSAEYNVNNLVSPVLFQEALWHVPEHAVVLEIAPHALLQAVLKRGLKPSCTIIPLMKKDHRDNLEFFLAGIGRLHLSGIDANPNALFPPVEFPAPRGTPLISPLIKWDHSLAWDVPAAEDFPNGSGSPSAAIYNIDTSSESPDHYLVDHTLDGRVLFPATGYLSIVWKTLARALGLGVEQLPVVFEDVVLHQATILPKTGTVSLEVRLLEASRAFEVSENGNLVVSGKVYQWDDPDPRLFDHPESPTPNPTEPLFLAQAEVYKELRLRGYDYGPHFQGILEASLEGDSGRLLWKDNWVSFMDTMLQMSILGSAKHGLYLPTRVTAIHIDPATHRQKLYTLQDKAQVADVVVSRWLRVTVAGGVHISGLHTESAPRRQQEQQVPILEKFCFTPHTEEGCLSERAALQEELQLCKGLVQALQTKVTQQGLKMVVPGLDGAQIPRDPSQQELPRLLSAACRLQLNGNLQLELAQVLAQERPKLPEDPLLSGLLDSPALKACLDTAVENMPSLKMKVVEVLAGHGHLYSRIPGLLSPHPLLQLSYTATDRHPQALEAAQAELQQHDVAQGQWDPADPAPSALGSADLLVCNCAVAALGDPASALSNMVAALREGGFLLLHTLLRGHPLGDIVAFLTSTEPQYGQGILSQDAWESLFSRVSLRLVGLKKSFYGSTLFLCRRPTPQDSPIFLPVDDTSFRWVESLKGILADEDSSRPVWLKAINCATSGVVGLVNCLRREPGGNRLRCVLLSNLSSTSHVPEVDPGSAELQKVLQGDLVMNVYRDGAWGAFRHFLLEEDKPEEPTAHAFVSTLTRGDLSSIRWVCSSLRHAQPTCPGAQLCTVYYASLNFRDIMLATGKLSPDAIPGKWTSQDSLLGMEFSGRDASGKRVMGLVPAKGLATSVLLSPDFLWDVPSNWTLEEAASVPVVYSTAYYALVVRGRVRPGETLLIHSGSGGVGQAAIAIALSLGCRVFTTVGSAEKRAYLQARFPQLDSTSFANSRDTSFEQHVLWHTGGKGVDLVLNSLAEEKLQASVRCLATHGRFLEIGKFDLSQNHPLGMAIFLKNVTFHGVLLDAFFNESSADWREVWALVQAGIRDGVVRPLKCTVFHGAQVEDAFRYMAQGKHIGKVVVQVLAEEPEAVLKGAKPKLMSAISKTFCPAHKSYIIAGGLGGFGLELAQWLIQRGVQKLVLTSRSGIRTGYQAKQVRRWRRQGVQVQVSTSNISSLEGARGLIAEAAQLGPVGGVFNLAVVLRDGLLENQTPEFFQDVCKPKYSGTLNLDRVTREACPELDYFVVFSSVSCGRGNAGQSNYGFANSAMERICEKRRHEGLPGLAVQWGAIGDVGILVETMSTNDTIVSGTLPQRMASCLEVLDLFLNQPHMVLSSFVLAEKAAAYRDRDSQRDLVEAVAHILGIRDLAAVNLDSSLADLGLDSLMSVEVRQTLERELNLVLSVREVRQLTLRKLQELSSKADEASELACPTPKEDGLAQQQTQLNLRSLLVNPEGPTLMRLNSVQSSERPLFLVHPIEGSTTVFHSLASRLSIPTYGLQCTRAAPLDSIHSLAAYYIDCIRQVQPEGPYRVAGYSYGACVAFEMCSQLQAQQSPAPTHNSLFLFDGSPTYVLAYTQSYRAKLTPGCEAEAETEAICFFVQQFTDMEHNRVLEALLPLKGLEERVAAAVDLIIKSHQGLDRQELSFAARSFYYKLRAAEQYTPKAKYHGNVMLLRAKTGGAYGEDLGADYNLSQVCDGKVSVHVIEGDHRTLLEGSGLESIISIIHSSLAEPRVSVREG

Fatty acid synthase [4] = target: T1, Fatty acid synthase; experiment: FAS thioesterase domain inhibitors, dose response, biochemical, kinetic fluorescence intensity (AID 624326); format: functional;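 note: rate of fluorescence rise from hydrolysis of a fluorogenic O-methyl fluorescein ester substrate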
Protein skinhead-1 = target: T2, Protein skinhead-1 (Caenorhabditis elegans, UniProt P34707); format: functional
T2 sequence (P34707 whole entry): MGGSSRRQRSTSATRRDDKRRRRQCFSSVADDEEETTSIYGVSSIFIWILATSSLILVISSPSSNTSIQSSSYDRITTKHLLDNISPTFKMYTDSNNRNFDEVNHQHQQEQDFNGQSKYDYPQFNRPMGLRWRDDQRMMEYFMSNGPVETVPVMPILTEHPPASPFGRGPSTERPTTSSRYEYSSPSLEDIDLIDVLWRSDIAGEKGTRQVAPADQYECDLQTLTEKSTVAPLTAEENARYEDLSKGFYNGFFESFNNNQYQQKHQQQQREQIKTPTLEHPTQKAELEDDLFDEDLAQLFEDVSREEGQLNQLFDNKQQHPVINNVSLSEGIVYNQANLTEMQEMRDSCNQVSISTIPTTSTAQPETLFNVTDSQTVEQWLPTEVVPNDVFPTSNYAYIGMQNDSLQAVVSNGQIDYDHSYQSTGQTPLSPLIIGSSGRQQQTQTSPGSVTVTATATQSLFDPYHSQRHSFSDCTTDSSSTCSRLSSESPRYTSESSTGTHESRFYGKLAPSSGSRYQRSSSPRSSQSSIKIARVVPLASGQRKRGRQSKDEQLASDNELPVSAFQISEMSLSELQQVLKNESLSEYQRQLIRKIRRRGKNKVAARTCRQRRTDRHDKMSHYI

Albumin = Albumin (Bos taurus, UniProt P02769); experiment: Counterscreen for inhibitors of T-cell receptor (TCR)-CD3 interaction: Fluorescence-based biochemical high throughput dose response assay to identify inhibitors of T-cell receptor (TCR)-CD3 interaction using a TAMRA-labeled BSA probe.; format: functional
Sequence of Albumin (P02769 whole entry): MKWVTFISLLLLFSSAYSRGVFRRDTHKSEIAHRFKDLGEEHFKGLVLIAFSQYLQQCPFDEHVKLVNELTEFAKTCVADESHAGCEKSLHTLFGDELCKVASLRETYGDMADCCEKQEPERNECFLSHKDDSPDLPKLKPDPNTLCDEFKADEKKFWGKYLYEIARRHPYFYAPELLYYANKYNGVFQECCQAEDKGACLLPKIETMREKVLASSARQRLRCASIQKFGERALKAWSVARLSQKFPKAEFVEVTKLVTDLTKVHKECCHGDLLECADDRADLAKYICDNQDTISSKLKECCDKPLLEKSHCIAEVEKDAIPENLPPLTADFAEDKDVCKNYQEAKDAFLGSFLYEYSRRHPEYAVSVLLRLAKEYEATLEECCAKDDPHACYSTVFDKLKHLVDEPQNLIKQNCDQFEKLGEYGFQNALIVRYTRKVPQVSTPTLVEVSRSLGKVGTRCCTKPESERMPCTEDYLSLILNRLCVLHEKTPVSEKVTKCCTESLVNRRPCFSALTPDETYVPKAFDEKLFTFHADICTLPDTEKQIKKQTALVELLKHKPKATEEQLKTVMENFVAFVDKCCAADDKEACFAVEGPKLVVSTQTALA

[5] = target: T3, High affinity choline transporter 1 (Homo sapiens, UniProt Q9GZV3); experiment: CHT inhibitors, dose response, cell-based, 5-point CRC, membrane potential dye (AID 504840); format: functional
T3 sequence (Q9GZV3 whole entry): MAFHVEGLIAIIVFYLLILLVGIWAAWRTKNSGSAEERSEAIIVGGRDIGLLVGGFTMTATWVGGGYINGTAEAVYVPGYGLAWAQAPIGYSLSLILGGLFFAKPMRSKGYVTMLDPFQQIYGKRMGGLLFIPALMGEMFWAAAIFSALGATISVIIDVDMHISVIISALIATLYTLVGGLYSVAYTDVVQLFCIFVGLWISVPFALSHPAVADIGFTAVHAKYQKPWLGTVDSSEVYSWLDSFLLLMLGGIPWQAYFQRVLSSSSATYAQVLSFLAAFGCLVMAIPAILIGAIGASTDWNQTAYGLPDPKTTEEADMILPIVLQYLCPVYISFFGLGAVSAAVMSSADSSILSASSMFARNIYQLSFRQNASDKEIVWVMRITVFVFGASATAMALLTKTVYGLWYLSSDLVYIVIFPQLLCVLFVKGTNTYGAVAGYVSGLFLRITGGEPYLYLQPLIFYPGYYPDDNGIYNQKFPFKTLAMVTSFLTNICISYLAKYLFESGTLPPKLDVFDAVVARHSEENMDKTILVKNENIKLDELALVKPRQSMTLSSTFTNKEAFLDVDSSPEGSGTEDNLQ

[6] = target: Heat shock protein HSP 90-alpha (Homo sapiens, UniProt P07900); format: functional, organism-based
[7] = target: T4, RNA-binding protein pos-1 (Caenorhabditis elegans, UniProt G5EF15); experiment: inhibitors of POS-1/mex-3 RNA binding, dose response, biochemical, fluorescence polarization (AID 1964);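 note: purified POS-1 fused to maltose binding protein made in E. coli; potency of compounds blocking POS-1 binding to fluorescent RNA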
T4 sequence (G5EF15 whole entry): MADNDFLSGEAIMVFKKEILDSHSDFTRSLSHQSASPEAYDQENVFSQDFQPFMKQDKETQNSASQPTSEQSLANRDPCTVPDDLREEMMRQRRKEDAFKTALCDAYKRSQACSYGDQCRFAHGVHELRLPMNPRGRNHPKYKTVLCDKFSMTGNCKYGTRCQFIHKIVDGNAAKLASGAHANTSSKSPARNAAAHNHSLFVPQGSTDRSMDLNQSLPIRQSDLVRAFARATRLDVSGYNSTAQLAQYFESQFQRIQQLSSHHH

Genome polyprotein = Genome polyprotein (dengue virus type 2, UniProt P29990); experiment: Dengue-2 NS5 methyltransferase inhibitors, primary screen, biochemical, confirmation dose response (AID 588689); format: functional
Sequence of Genome polyprotein (P29990 2492-3391 limits assumed): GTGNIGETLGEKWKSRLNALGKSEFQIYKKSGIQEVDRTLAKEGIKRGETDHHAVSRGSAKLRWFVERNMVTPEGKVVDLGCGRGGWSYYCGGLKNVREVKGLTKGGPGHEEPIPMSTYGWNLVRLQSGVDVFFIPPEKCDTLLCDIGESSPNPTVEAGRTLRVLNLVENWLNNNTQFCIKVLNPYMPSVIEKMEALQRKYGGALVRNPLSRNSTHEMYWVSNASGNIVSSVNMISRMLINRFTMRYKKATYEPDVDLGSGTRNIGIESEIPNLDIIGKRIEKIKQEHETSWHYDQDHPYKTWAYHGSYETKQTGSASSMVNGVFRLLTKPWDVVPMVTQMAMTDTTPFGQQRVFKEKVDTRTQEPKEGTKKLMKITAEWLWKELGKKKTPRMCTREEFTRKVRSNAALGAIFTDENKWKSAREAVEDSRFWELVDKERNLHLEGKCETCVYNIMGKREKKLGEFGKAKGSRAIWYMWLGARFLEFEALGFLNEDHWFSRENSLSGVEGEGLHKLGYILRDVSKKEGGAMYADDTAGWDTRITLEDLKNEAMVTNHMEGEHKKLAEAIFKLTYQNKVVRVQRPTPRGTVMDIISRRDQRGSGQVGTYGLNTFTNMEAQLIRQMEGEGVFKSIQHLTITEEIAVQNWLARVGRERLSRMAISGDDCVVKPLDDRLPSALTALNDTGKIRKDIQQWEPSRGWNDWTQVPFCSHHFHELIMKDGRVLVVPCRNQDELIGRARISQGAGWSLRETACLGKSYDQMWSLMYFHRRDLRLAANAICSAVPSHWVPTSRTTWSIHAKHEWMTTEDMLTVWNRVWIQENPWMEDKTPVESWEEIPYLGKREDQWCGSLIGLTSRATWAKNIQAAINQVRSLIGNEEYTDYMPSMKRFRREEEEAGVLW

[8] = target: T5, Zinc finger protein mex-5 (Caenorhabditis elegans, UniProt Q9XUB2); experiment: MEX-5/TCR-2 RNA interaction inhibitors, dose response, biochemical, C. elegans, fluorescence polarization (AID 1960)
T5 sequence (Q9XUB2 whole entry): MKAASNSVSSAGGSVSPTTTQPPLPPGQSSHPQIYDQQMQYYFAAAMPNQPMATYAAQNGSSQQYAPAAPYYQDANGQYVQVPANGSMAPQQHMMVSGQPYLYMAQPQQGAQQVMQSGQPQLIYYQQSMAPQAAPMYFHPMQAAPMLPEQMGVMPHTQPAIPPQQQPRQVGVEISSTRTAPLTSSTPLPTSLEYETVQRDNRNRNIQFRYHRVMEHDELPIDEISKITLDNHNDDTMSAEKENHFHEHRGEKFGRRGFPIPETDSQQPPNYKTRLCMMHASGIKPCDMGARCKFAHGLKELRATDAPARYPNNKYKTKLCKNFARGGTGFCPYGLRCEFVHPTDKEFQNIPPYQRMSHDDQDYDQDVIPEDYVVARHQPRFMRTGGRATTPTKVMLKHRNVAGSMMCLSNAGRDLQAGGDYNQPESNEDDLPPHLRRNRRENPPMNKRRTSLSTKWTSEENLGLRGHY

Caspase-6 = target: T6, Caspase-6 (Homo sapiens, UniProt P55212); experiment: human caspase-6 inhibitors, dose response, biochemical, VEID-R110 fluorescence, cherry-pick (AID 720632)
T6 sequence (P55212 whole entry): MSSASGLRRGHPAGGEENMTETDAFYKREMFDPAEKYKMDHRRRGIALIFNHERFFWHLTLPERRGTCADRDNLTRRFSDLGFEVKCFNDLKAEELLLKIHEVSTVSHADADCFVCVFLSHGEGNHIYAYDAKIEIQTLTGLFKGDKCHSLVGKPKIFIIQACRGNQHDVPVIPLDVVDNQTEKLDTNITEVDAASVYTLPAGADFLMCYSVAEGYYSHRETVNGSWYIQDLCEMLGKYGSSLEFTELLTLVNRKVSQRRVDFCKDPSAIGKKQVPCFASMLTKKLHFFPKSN

[9] = Luminescence Cell-Based Dose Response HTS to Identify Activators of Luciferase Translation or Activity in H4 […] Cells. [Related pubchem assays: 1829 (Project Summary), 1814 (Primary HTS)]; format: functional
[10] = Luminescence Cell-Based Dose Confirmation HTS to Identify Activators of 5'UTR Stem-Loop Driven Alpha-Synuclein mRNA Translation in H4 Neuroglioblastoma Cells. [Related pubchem assays: 1829 (Project Summary), 1814 (Primary HTS)]; format: functional
[11] = Counterscreen for inhibitors of Trypanosoma brucei methionyl tRNA synthetase (MetRS): Luminescence-based cell-based high throughput dose response assay to identify compounds that are cytotoxic to Jurkat human T lymphocyte cells.; format: functional
H4 = experiment: Luminescence Cell-Based Dose Response HTS to Identify Activators of 5'UTR Stem-Loop Driven Prion Protein mRNA Translation in H4 Neuroglioblastoma Cells. [Related pubchem assays: 1829 (Project Summary), 1814 (Primary HTS)]; format: functional; details: Homo sapiens
[12] = HEp-2 cell cytotoxicity, dose response, cytotoxicity control for RSV inhibitor project, HTS (AID 2410); format: functional; details: human respiratory syncytial virus
Nonstructural protein 1 = Nonstructural protein 1 (Influenza A virus, UniProt Q194T2); format: functional, Influenza A virus (A/California/07/2009(H1N1))
Sequence of Nonstructural protein 1 (Q194T2 whole entry): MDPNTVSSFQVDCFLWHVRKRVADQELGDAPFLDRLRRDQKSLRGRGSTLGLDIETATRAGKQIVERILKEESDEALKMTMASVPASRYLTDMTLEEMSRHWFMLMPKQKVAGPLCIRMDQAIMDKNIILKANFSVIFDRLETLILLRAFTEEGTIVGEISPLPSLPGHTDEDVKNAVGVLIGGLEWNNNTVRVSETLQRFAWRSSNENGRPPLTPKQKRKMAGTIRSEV

Sequence of DNA dC->dU-editing enzyme APOBEC-3G (Q9HC16 whole entry): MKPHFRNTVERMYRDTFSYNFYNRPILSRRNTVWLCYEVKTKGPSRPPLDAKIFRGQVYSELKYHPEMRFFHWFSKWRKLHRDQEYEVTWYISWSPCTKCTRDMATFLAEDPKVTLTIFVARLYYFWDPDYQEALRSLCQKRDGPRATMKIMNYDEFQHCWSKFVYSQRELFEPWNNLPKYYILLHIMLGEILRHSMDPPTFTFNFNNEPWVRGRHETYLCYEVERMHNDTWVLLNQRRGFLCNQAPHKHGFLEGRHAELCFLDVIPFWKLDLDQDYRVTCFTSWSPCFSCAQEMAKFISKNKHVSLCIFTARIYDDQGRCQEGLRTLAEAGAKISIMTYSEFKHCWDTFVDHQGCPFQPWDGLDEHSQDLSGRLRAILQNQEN

## CSC1=NCCN1CCOc1ccccc1
[1]
  IC50: 8.19 µM (active)
[2]
  IC50: 6.77 µM (active)

## CCCc1cc(C(=O)Nc2cc(Cl)ccc2O)no1
HeLa
  AC50: > 350 µM (inactive)

## CC(C)CSc1ncc(-c2cccc(C(F)(F)F)c2)cn1
Fatty acid synthase [3]
  IC50: 15.5 µM (active)
Fatty acid synthase [4]
  IC50: 14.2 µM (active)

## CCc1ccc(N2Cc3ccccc3C2)cc1
HeLa
  AC50: 43.5 µM (active)

## O=C(Nc1ccc(OC(F)F)c(Cl)c1)c1ccccn1
HeLa
  AC50: 99.7 µM (active)
Protein skinhead-1
  IC50: 51.6 µM (inactive)

## COC(=O)Nc1ccc(S(=O)(=O)NNC(=O)c2c(O)c3ccccc3n(C)c2=O)cc1
Albumin
  IC50: > 94.1 µM (inactive)
[5]
  IC50: 13.2 µM (active)

## CCC(=O)OC1(C)C(=O)C2=COC(c3ccc(OC)cc3)=CC2=C(Br)C1=O (stereo unspecified)
[6]
  AC50: 1.51 µM (active)
[7]
  EC50: 31.5 µM (active)
Genome polyprotein
  IC50: > 100 µM (active)
[8]
  EC50: 32.9 µM (active)

## N#Cc1ccc(Sc2nc3ccccc3[nH]2)cc1C#N
Fatty acid synthase [3]
  IC50: 2.7 µM (active)
Fatty acid synthase [4]
  IC50: 2.3 µM (active)

## Cc1ccc(N(Cc2cc3cccc(C)c3nc2O)S(=O)(=O)c2ccccc2)c(C)c1
[1]
  IC50: 5.56 µM (active)
[2]
  IC50: 4.45 µM (active)

## O=C(O)c1ccc(Cl)c(S(=O)(=O)Nc2ccc3c[nH]nc3c2)c1
Caspase-6
  AC50: 11.1 µM (active)

## Fc1ccccc1CSc1nc2cc(Br)c[nH]c-2n1
[9]
  EC50: 89.7 µM (active)
[10]
  EC50: 0.116 µM (active)
[11]
  IC50: 83.3 µM (inactive)
H4
  EC50: 20.3 µM (active)

## CCC(=O)Nc1ccc(-c2ccc(N3CCC(C)CC3)nn2)cc1
HeLa
  AC50: 146 µM (active)

## COc1ccc2c(c1OC)C(=O)OC2Nc1nc(-c2cc3cc(Br)ccc3oc2=O)cs1 (stereo unspecified)
[12]
  CC50: 30.7 µM (active)
HeLa
  AC50: 290 µM (active)

## COc1ccccc1CNC(=O)COC(=O)c1cc([N+](=O)[O-])ccc1N1CCOCC1
Fatty acid synthase [3]
  IC50: 1.31 µM (active)
Fatty acid synthase [4]
  IC50: 1.64 µM (active)

## CCn1c(CNc2ccc(Cl)cc2)nnc1SCc1ccc(Cl)cc1
[6]
  AC50: 5.01 µM (active)

## COc1ccc(-n2c(C)cc(C(=O)C[N+]34CCN(CC3)CC4)c2C)cc1
[1]
  IC50: 2.73 µM (active)
[2]
  IC50: 2.64 µM (active)

## COc1ccc2c(c1)[C@H]1[C@H](CO2)[C@H](c2ccccc2)[C@]2(C)C(=O)Nc3ccc(Br)cc3C(=O)N12
[6]
  AC50: 1.59 µM (active)

## CCC(=O)c1ccc(OCC(=O)Nc2cc(S(=O)(=O)N3CCCCC3)ccc2N2CCN(CC)CC2)cc1
[1]
  IC50: 5.31 µM (active)
[2]
  IC50: 3.32 µM (active)

## Cc1cccc(N=C2c3cc([N+](=O)[O-])ccc3-c3c2cc([N+](=O)[O-])cc3[N+](=O)[O-])c1
[6]
  AC50: 16.6 µM (active)
Nonstructural protein 1
  IC50: 11.7 µM (active)

## O=C1C=CC(=Nc2ccc(F)cc2)O1
[6]
  AC50: 2.25 µM (active)

## Cn1c2ccccc2c2cc(/C=N/NC(=O)c3cc(O)cc(O)c3)ccc21
[1]
  IC50: 41.6 µM (active)
[12]
  CC50: 12.8 µM (active)
[2]
  IC50: 16.2 µM (active)

## COc1ccc(Cl)cc1N(CC(=O)N/N=C/c1ccc(OCC(N)=O)cc1)S(C)(=O)=O
Caspase-6
  AC50: 9 µM (active)

## COc1ccc(C)c2s/c(=N\C(=O)c3ccc(C(C)=O)cc3)n(C)c12
HeLa
  AC50: 40.9 µM (active)

## COc1cc(O)c(/C=N/NC(=O)c2ccncc2)c(OC)c1[N+](=O)[O-]
Albumin
  IC50: > 94.1 µM (inactive)
Nonstructural protein 1
  IC50: 8.82 µM (active)

## COc1ccc([N+](=O)[O-])cc1NC(=O)Nc1ccccc1
Fatty acid synthase [3]
  IC50: 19.9 µM (active)
Fatty acid synthase [4]
  IC50: 15.5 µM (active)
